The record followed here is patent US10688082B2, “Aminopyrazine compounds with A2A antagonist properties” (Merck Sharp & Dohme Corp., priority 2015, dated 2020).

The target in the experiment is T1, human A2a receptor (Homo sapiens, UniProt P29274).
T1 construct: purchased Perkin-Elmer RBHA2AM400UA; host or cells: HEK293 cells (membranes)
Nature of the experiment: Competition binding assay using Scintillation Proximity technology (A2a activity). As to the method:
Binding affinities of compounds of the invention for the human A2a receptor were determined in a competition binding assay using Scintillation Proximity technology. Thus, […] from HEK293 cells expressing the human A2a receptor were incubated with a compound of the invention at concentrations ranging from 3000 nM to 0.15 nM in a reaction mixture containing also 0.5 nM of a tritiated form of 5-amino-7-[2-phenethyl]-2-(furan-2-yl)-7H-pyrazolo[4,3-e][1,2,4]triazolo[1,5-c]pyrimidine (the tritiated compound) and 100 μg of wheat germ agglutin-coated yttrium silicate SPA beads for one hour at room temperature with agitation. The beads were then allowed to settle to the bottom of the wells for 1 hr, after which the membrane-associated radioactivity was determined by scintillation counting in a TopCount microplate reader. Ki values were determined using the Cheng-Prusoff equation.
HEK293 cells expressing the human, rat, dog or monkey adenosine 2a receptor (Purchased from Perkin-Elmer # RBHA2AM400UA).
The Tritiated compound was prepared according to published methods.
Wheat germ agglutinin-coated yttrium silicate SPA beads (GE Healthcare # RPNQ0023). Dilute to 25 mg/ml in assay buffer.
Assay Buffer was prepared using Dulbecco's calcium and magnesium free phosphate buffered saline+10 mM MgCl2
Adenosine deaminase from calf intestine, 10 mg/2 ml (Roche #10 102 105 001).
A2a antagonist standard (9-chloro-1-(2-furanyl)-[1,2,4]triazolo1,5-c]quinazolin-5-amine from Tocris Bioscience)
Make eight 1:3 serial dilutions in 100% DMSO from a 3 mM compound stock
Transfer 50 nl of compound into a 384-well OptiPlate (Perkin Elmer).
Typically, final concentrations of compound used in the assay ranged from 3000 nM to 0.152 nM.
Dilute a solution of the Tritiated compound to 1.25 nM in assay buffer. This is a 2.5× solution. The final concentration in the assay is 0.5 nM. Calculate the concentration by counting two 5 μl aliquots.
Use 0.25 ug of membrane/well. Dilute membranes to 9.7 μg/ml in assay buffer. Treat with 20 ug/ml adenosine deaminase (ADA) for 15 minutes at room temperature to degrade endogenous adenosine.
Use 100 μg/well wheat germ agglutinin-coated yttrium silicate SPA beads.
Mix ADA-treated membranes and SPA beads together for 30 min prior to assay.
To the Perkin-Elmer Optiplate-384 containing the compound titration add 20 μl of 2.5× solution of the Tritiated compound and 30 μl of the membrane-bead mixture. Incubate for one hour at room temperature with agitation.
Include total binding (assay buffer+1% DMSO) and non-specific binding (CGS15943, 1 μM) wells.
Allow the beads to settle for one hour.
A curve fitting program (i.e., Prism, Activity Base, Chemcart) is used to determine the EC50. The Ki value is calculated using the Cheng-Prusoff equation. K i=EC50/(1+(radioligand concentration/Kd))

Where [1] appears, read: membranes from HEK293 cells expressing the human A2a receptor, 0.5 nM tritiated ligand, Cheng-Prusoff.

T1 sequence (P29274 whole entry): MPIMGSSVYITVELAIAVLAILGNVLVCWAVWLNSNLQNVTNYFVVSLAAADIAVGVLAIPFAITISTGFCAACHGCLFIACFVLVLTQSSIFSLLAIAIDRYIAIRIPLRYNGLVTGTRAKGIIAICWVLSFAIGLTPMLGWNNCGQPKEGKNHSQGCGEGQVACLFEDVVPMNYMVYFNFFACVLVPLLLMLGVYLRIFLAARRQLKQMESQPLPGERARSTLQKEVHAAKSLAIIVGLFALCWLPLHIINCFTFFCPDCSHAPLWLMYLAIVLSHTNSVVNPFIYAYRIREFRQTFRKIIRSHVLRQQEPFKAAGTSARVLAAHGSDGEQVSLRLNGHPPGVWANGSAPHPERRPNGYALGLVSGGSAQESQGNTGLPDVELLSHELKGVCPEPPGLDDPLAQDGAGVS

As usually defined, the Ki is a measure of affinity in units of concentration, obtained from inhibition or displacement. In the case of `COc1cccc2c1nc(N)n1nc(Cc3ccc(C(F)(F)F)cc3)cc21` [Ex-35, 7-methoxy-2-(4-(trifluoromethyl)benzyl)pyrazolo[1,5-c]quinazolin-5-amine], affinity under setting [1] was put at a Ki of 130 nM.
The same measure, in the same setting: next, `COc1cccc2c1nc(N)n1nc(Cc3cccc(C(F)(F)F)c3)cc21` [Ex-36, 7-methoxy-2-(3-(trifluoromethyl)benzyl)pyrazolo[1,5-c]quinazolin-5-amine]: 12 nM; `COc1cccc2c1nc(N)n1nc(Cc3cnn(C)c3)cc21` [Ex-37, 7-methoxy-2-((1-methyl-1H-pyrazol-4-yl)methyl)pyrazolo[1,5-c]quinazolin-5-amine]: 15 nM.
Still for that read-out and setting: in the case of `COc1cccc2c1nc(N)n1nc(Cc3c(F)cccc3Cl)cc21` [Ex-38, 2-(2-chloro-6-fluorobenzyl)-7-methoxypyrazolo[1,5-c]quinazolin-5-amine] it was 25 nM; in that of `COc1cccc2c1nc(N)n1nc(Cc3ccc(F)c(F)c3F)cc21` [Ex-39, 7-methoxy-2-(2,3,4-trifluorobenzyl)pyrazolo[1,5-c]quinazolin-5-amine], 27 nM; in that of `COc1cccc2c1nc(N)n1nc(Cc3cccc(F)c3F)cc21` [Ex-40, 2-(2,3-difluorobenzyl)-7-methoxypyrazolo[1,5-c]quinazolin-5-amine], 6 nM.
Under setting [1], `COc1cccc2c1nc(N)n1nc(Cc3cccc4[nH]ccc34)cc21` [Ex-41, 2-((1H-indol-4-yl)methyl)-7-methoxypyrazolo[1,5-c]quinazolin-5-amine] showed a Ki of 5 nM.
Same read-out and setting: next, `COc1cccc2c1nc(N)n1nc(Cc3c(F)cccc3F)cc21` [Ex-42, 2-(2,6-difluorobenzyl)-7-methoxypyrazolo[1,5-c]quinazolin-5-amine]: 3 nM; `COc1cccc2c1nc(N)n1nc(Cc3cccc(Cl)c3Cl)cc21` [Ex-43, 2-(2,3-dichlorobenzyl)-7-methoxypyrazolo[1,5-c]quinazolin-5-amine]: 80 nM.
Same read-out and setting: next, `COc1cccc2c1nc(N)n1nc(Cc3cccc4cnccc34)cc21` [Ex-44, 2-(isoquinolin-5-ylmethyl)-7-methoxypyrazolo[1,5-c]quinazolin-5-amine]: 18 nM; `COc1cccc2c1nc(N)n1nc(Cc3ccccc3Cl)cc21` [Ex-45, 2-(2-chlorobenzyl)-7-methoxypyrazolo[1,5-c]quinazolin-5-amine]: 10 nM.
Compound `COc1cccc2c1nc(N)n1nc(Cc3ccccc3OC(F)(F)F)cc21` [Ex-46, 7-methoxy-2-(2-(trifluoromethoxy)benzyl)pyrazolo[1,5-c]quinazolin-5-amine] gave a Ki under setting [1] of 34 nM.
The same measure, in the same setting: in the case of `COc1cccc2c1nc(N)n1nc(Cc3ccccc3N(C)C)cc21` [Ex-47, 2-(2-(dimethylamino)benzyl)-7-methoxypyrazolo[1,5-c]quinazolin-5-amine] it was 1 nM; in that of `COCc1cccc(Cc2cc3c4cccc(OC)c4nc(N)n3n2)c1` [Ex-48, 7-methoxy-2-(3-(methoxymethyl)benzyl)pyrazolo[1,5-c]quinazolin-5-amine], 40 nM.
`COc1cccc2c1nc(N)n1nc(Cc3cccc(Cl)c3)cc21` [Ex-49, 2-(3-chlorobenzyl)-7-methoxypyrazolo[1,5-c]quinazolin-5-amine] gave a Ki under setting [1] of 35 nM.
As for `COc1cccc2c1nc(N)n1nc(Cc3ccccc3C#N)cc21` [Ex-50, 2-((5-amino-7-methoxypyrazolo[1,5-c]quinazolin-2-yl)methyl)benzonitrile], the affinity under setting [1] corresponds to a Ki of 2 nM.
Still for that read-out and setting: in the case of `COc1cccc2c1nc(N)n1nc(Cc3ccccc3OCc3ccccc3)cc21` [Ex-51, 2-(2-(benzyloxy)benzyl)-7-methoxypyrazolo[1,5-c]quinazolin-5-amine] it was 128 nM; in that of `COc1cccc2c1nc(N)n1nc(Cc3cccc(C#N)c3)cc21` [Ex-52, 3-((5-amino-7-methoxypyrazolo[1,5-c]quinazolin-2-yl)methyl)benzonitrile], 33 nM; in that of `COc1cccc2c1nc(N)n1nc(Cc3cccc4ccsc34)cc21` [Ex-53, 2-(benzo[b]thiophen-7-ylmethyl)-7-methoxypyrazolo[1,5-c]quinazolin-5-amine], 48 nM.
For `COc1cccc2c1nc(N)n1nc(Cc3cccc(-n4nc(C)cc4C)c3)cc21` [Ex-54, 2-(3-(3,5-dimethyl-1H-pyrazol-1-yl)benzyl)-7-methoxypyrazolo[1,5-c]quinazolin-5-amine], the Ki under setting [1] amounted to 139 nM.
Under setting [1], `COc1cccc2c1nc(N)n1nc(Cc3ccccc3OC(F)F)cc21` [Ex-55, 2-(2-(difluoromethoxy)benzyl)-7-methoxypyrazolo[1,5-c]quinazolin-5-amine] returned a Ki of 10 nM.
The same measure, in the same setting: next, `COc1cccc2c1nc(N)n1nc(Cc3cccc4c3CNC4=O)cc21` [Ex-56, 4-((5-amino-7-methoxypyrazolo[1,5-c]quinazolin-2-yl)methyl)isoindolin-1-one]: 49 nM; `COc1cccc2c1nc(N)n1nc(Cc3cccc4nc(C)ccc34)cc21` [Ex-57, 7-methoxy-2-((2-methylquinolin-5-yl)methyl)pyrazolo[1,5-c]quinazolin-5-amine]: 165 nM.
In the case of `COc1cccc2c1nc(N)n1nc(Cc3cccc(-n4cccn4)c3)cc21` [Ex-58, 2-(3-(1H-pyrazol-1-yl)benzyl)-7-methoxypyrazolo[1,5-c]quinazolin-5-amine], the Ki under setting [1] is 69 nM.
On the same count and under the same terms, in the case of `COc1cccc2c1nc(N)n1nc(Cc3cccc(F)c3C)cc21` [Ex-59, 2-(3-fluoro-2-methylbenzyl)-7-methoxypyrazolo[1,5-c]quinazolin-5-amine] it was 21 nM.
As to `COc1cccc2c1nc(N)n1nc(Cc3cccc4ccc(C)nc34)cc21` [Ex-60, 7-methoxy-2-((2-methylquinolin-8-yl)methyl)pyrazolo[1,5-c]quinazolin-5-amine], the affinity under setting [1] corresponds to a Ki of 22 nM.
`COc1cccc2c1nc(N)n1nc(Cc3cccc(C#N)c3F)cc21` [Ex-61, 3-((5-amino-7-methoxypyrazolo[1,5-c]quinazolin-2-yl)methyl)-2-fluorobenzonitrile] had a Ki under setting [1] of 21 nM.
The same measure, in the same setting: next, `COc1cccc2c1nc(N)n1nc(Cc3cc(Cl)cc(C#N)c3)cc21` [Ex-62, 3-((5-amino-7-methoxypyrazolo[1,5-c]quinazolin-2-yl)methyl)-5-chlorobenzonitrile]: 134 nM.
Under setting [1], `COc1cccc2c1nc(N)n1nc(Cc3ccccc3-n3cccn3)cc21` [Ex-63, 2-(2-(1H-pyrazol-1-yl)benzyl)-7-methoxypyrazolo[1,5-c]quinazolin-5-amine] had a Ki of 7 nM.
For `COc1cccc2c1nc(N)n1nc(Cc3cc(F)ccc3F)cc21` [Ex-64, 2-(2,5-difluorobenzyl)-7-methoxypyrazolo[1,5-c]quinazolin-5-amine], the affinity under setting [1] corresponds to a Ki of 2 nM.
Under setting [1], `COc1cccc2c1nc(N)n1nc(Cc3cc(F)cc(F)c3)cc21` [Ex-65, 2-(3,5-difluorobenzyl)-7-methoxypyrazolo[1,5-c]quinazolin-5-amine] returned a Ki of 5 nM.
On the same count and under the same terms, in the case of `COc1cccc2c1nc(N)n1nc(CN3CCN(c4ccccc4)CC3)cc21` [Ex-66, 7-methoxy-2-((4-phenylpiperazin-1-yl)methyl)pyrazolo [1,5-c]quinazolin-5-amine] it was 145 nM; in that of `COc1cccc2c1nc(N)n1nc(CN3CC(O)C3)cc21` [Ex-67, 1-((5-amino-7-methoxypyrazolo[1,5-c]quinazolin-2-yl)methyl)azetidin-3-ol], 473 nM; in that of `COc1cccc2c1nc(N)n1nc(CN3Cc4ccc(F)cc4C3)cc21` [Ex-68, 2-((5-fluoroisoindolin-2-yl)methyl)-7-methoxypyrazolo[1,5-c]quinazolin-5-amine], 24 nM.
Regarding `COc1cccc2c1nc(N)n1nc(CN3Cc4cccnc4C3)cc21` [Ex-69, 2-((5,7-dihydro-6H-pyrrolo[3,4-b]pyridin-6-yl)methyl)-7-methoxypyrazolo[1,5-c]quinazolin-5-amine], under setting [1], affinity was put at a Ki of 14 nM.
Consider `COc1cccc2c1nc(N)n1nc(C(=O)N3CCN(c4ccccn4)CC3)cc21` [Ex-70, (5-amino-7-methoxypyrazolo[1,5-c]quinazolin-2-yl)(4-(pyridin-2-yl)piperazin-1-yl)methanone], for which, under “same protocol”, the Ki was found to be 7 nM.
For `COc1cccc2c1nc(N)n1nc(C(=O)N3CCN(Cc4ccccc4)CC3)cc21` [Ex-71, (5-amino-7-methoxypyrazolo[1,5-c]quinazolin-2-yl)(4-benzylpiperazin-1-yl)methanone], the affinity under setting [1], expressed as Ki, was 11 nM.
